{"source": "paper PMC10482975", "about": "(Nature Communications, 2023)", "key": {"M4 mAChR Y89A": {"target": "T1, M4 mAChR Y89A (Homo sapiens, UniProt P08173, Y89A)", "T1 construct": "expressed in transfected cells", "T1 sequence (P08173 1-479 Y89A)": "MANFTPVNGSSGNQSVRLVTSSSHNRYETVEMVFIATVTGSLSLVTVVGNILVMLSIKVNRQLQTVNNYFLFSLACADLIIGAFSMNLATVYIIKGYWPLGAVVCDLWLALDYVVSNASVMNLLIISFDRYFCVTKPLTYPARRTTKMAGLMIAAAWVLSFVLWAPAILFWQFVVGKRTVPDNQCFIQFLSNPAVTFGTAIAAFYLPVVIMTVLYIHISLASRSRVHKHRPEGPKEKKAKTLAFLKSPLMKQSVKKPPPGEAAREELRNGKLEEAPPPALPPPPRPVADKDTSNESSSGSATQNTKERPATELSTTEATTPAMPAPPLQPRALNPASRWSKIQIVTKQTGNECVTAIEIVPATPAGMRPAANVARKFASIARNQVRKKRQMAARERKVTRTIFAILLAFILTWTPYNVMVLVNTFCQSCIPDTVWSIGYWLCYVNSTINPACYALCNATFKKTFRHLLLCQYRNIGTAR", "assay": "[3H]-NMS radioligand dissociation binding, M4 mAChR Y89A", "parameters": "[3H]-NMS binding remaining vs Total Binding, MEAN: unit not given here", "conditions": "for [3H]-NMS binding remaining vs Total Binding, MEAN: M4 Y89A mAChR; for effect on [3H]-NMS dissociation (in words): M4 mAChR Y89A mutant", "description": "(§1) Flp-In Chinese hamster ovary (CHO) (Thermo Fisher Scientific) cells stably expressing mAChR WTs or mutant constructs were cultured in Dulbecco’s modified Eagle’s medium (DMEM, Invitrogen) containing 5% foetal bovine serum (FBS; ThermoTrace) and […] of hygromycin (Roche) in a humidified incubator (37 °C, 5% CO2). Upon reaching confluence, media was removed, cells were washed with phosphate buffered saline (PBS) and harvested from tissue culture flasks using versene (PBS with 0.2 g EDTA). Cells were then pelleted through centrifugation at 350 × g for three minutes followed by resuspension in DMEM + 5% FBS. Cells were then either plated for an assay or reseeded into a tissue culture flask."}, "M4 mAChR Q184A": {"target": "T2, M4 mAChR Q184A (Homo sapiens, UniProt P08173, Q184A)", "T2 construct": "expressed in transfected cells", "T2 sequence (P08173 1-479 Q184A)": "T1 sequence (P08173 1-479 Y89A) with A89Y, Q184A", "assay": "[3H]-NMS radioligand dissociation binding, M4 mAChR Q184A", "parameters": "unit not given here", "description": "as §1"}, "M4 mAChR F186A": {"target": "T3, M4 mAChR F186A (Homo sapiens, UniProt P08173, F186A)", "T3 construct": "expressed in transfected cells", "T3 sequence (P08173 1-479 F186A)": "T1 sequence (P08173 1-479 Y89A) with A89Y, F186A", "assay": "[3H]-NMS radioligand dissociation binding, M4 mAChR F186A", "conditions": "for [3H]-NMS binding remaining (0 min = 100), MEAN: M4 F186A mAChR; for effect on [3H]-NMS dissociation (in words): M4 mAChR F186A mutant", "description": "as §1"}, "M4 mAChR L190F": {"target": "T4, M4 mAChR L190F (Homo sapiens, UniProt P08173, L190F)", "T4 construct": "expressed in transfected cells", "T4 sequence (P08173 1-479 L190F)": "T1 sequence (P08173 1-479 Y89A) with A89Y, L190F", "assay": "[3H]-NMS radioligand dissociation binding, M4 mAChR L190F", "parameters": "unit not given here", "description": "as §1"}, "[1]": {"conditions": "+ 10uM LY2033 (Allosteric Ligand), Time 0 min (Total Binding)"}, "[2]": {"conditions": "+ 10uM LY2033 (Allosteric Ligand), Time 30 min"}, "[3]": {"conditions": "+ 10uM LY2033 (Allosteric Ligand), Time 60 min"}, "[4]": {"conditions": "+ 10uM LY2033 (Allosteric Ligand), Time 90 min"}, "[5]": {"conditions": "+ 10uM LY2033 (Allosteric Ligand), Time 120 min"}, "[6]": {"conditions": "+ 10uM LY2033 (Allosteric Ligand), Time 180 min"}, "[7]": {"conditions": "+ 10uM LY2033 (Allosteric Ligand), Time 300 min"}}, "note": "Where a chain is given by its changes, count along the chain named.", "data": [{"smiles": "COc1nc2sc(C(=O)NC3CC3)c(N)c2c(C)c1Cl", "note": "[LY2033298]", "values": [{"measurement": "[3H]-NMS binding remaining vs Total Binding, MEAN", "setting": "M4 mAChR Y89A; [1]", "result": 100.077}, {"measurement": "[3H]-NMS binding remaining vs Total Binding, MEAN", "setting": "M4 mAChR Y89A; [2]", "result": 111.396}, {"measurement": "[3H]-NMS binding remaining vs Total Binding, MEAN", "setting": "M4 mAChR Y89A; [3]", "result": 121.467}, {"measurement": "[3H]-NMS binding remaining vs Total Binding, MEAN", "setting": "M4 mAChR Y89A; [4]", "result": 123.726}, {"measurement": "[3H]-NMS binding remaining vs Total Binding, MEAN", "setting": "M4 mAChR Y89A; [5]", "result": 111.892}, {"measurement": "[3H]-NMS binding remaining vs Total Binding, MEAN", "setting": "M4 mAChR Y89A; [6]", "result": 116.814}, {"measurement": "[3H]-NMS binding remaining vs Total Binding, MEAN", "setting": "M4 mAChR Y89A; [7]", "result": 102.533}, {"measurement": "effect on [3H]-NMS dissociation (in words)", "setting": "M4 mAChR Y89A", "result": "the same effect was observed"}, {"measurement": "[3H]-NMS binding remaining vs Total Binding, MEAN", "setting": "M4 mAChR Q184A; [1]", "result": 100}, {"measurement": "[3H]-NMS binding remaining vs Total Binding, MEAN", "setting": "M4 mAChR Q184A; [2]", "result": 89.0052}, {"measurement": "[3H]-NMS binding remaining vs Total Binding, MEAN", "setting": "M4 mAChR Q184A; [3]", "result": 100.674}, {"measurement": "[3H]-NMS binding remaining vs Total Binding, MEAN", "setting": "M4 mAChR Q184A; [4]", "result": 109.408}, {"measurement": "[3H]-NMS binding remaining vs Total Binding, MEAN", "setting": "M4 mAChR Q184A; [5]", "result": 91.4218}, {"measurement": "[3H]-NMS binding remaining vs Total Binding, MEAN", "setting": "M4 mAChR Q184A; [6]", "result": 88.0443}, {"measurement": "[3H]-NMS binding remaining vs Total Binding, MEAN", "setting": "M4 mAChR Q184A; [7]", "result": 76.9832}, {"measurement": "[3H]-NMS binding remaining (0 min = 100), MEAN", "setting": "M4 mAChR F186A; 10uM Atr + 30uM LY2033, 30 min", "result": 80.3007}, {"measurement": "[3H]-NMS binding remaining (0 min = 100), MEAN", "setting": "M4 mAChR F186A; 10uM Atr + 30uM LY2033, 90 min", "result": 48.89}, {"measurement": "[3H]-NMS binding remaining (0 min = 100), MEAN", "setting": "M4 mAChR F186A; 10uM Atr + 30uM LY2033, 180 min", "result": 55.5733}, {"measurement": "[3H]-NMS binding remaining (0 min = 100), MEAN", "setting": "M4 mAChR F186A; 10uM Atr + 30uM LY2033, 300 min", "result": 28.0247}, {"measurement": "effect on [3H]-NMS dissociation (in words)", "setting": "M4 mAChR F186A", "result": "a similar effect was observed"}, {"measurement": "[3H]-NMS binding remaining vs Total Binding, MEAN", "setting": "M4 mAChR L190F; [1]", "result": 100}, {"measurement": "[3H]-NMS binding remaining vs Total Binding, MEAN", "setting": "M4 mAChR L190F; [2]", "result": 104.676}, {"measurement": "[3H]-NMS binding remaining vs Total Binding, MEAN", "setting": "M4 mAChR L190F; [3]", "result": 101.661}, {"measurement": "[3H]-NMS binding remaining vs Total Binding, MEAN", "setting": "M4 mAChR L190F; [4]", "result": 96.3234}, {"measurement": "[3H]-NMS binding remaining vs Total Binding, MEAN", "setting": "M4 mAChR L190F; [5]", "result": 92.5099}, {"measurement": "[3H]-NMS binding remaining vs Total Binding, MEAN", "setting": "M4 mAChR L190F; [6]", "result": 89.5439}, {"measurement": "[3H]-NMS binding remaining vs Total Binding, MEAN", "setting": "M4 mAChR L190F; [7]", "result": 70.7364}]}, {"smiles": "C[N+](C)(C)CC#CCOC1=NOCC1", "note": "[iperoxo]", "values": [{"measurement": "[3H]-NMS binding remaining (0 min = 100), MEAN", "setting": "M4 mAChR F186A; 10uM Atr + 10 μM Iperoxo, 30 min", "result": 78.4972}, {"measurement": "[3H]-NMS binding remaining (0 min = 100), MEAN", "setting": "M4 mAChR F186A; 10uM Atr + 10 μM Iperoxo, 90 min", "result": 56.5181}, {"measurement": "[3H]-NMS binding remaining (0 min = 100), MEAN", "setting": "M4 mAChR F186A; 10uM Atr + 10 μM Iperoxo, 180 min", "result": 43.1916}, {"measurement": "[3H]-NMS binding remaining (0 min = 100), MEAN", "setting": "M4 mAChR F186A; 10uM Atr + 10 μM Iperoxo, 300 min", "result": 30.9448}]}, {"smiles": "CCCCCCOc1nsnc1C1=CCCN(C)C1", "note": "[xanomeline]", "values": [{"measurement": "[3H]-NMS binding remaining vs Total Binding, MEAN", "setting": "M4 mAChR Y89A; +100uM Xano, Time 30 min", "result": 98.3579}, {"measurement": "[3H]-NMS binding remaining vs Total Binding, MEAN", "setting": "M4 mAChR Y89A; +100uM Xano, Time 60 min", "result": 102.694}, {"measurement": "[3H]-NMS binding remaining vs Total Binding, MEAN", "setting": "M4 mAChR Y89A; +100uM Xano, Time 90 min", "result": 104.852}, {"measurement": "[3H]-NMS binding remaining vs Total Binding, MEAN", "setting": "M4 mAChR Y89A; +100uM Xano, Time 120 min", "result": 120.479}, {"measurement": "[3H]-NMS binding remaining vs Total Binding, MEAN", "setting": "M4 mAChR Y89A; +100uM Xano, Time 300 min", "result": 77.2149}, {"measurement": "effect on [3H]-NMS dissociation (in words)", "setting": "M4 mAChR Y89A", "result": "improved ability"}, {"measurement": "[3H]-NMS binding remaining vs Total Binding, MEAN", "setting": "M4 mAChR Q184A; +100uM Xano, Time 30 min", "result": 83.7482}, {"measurement": "[3H]-NMS binding remaining vs Total Binding, MEAN", "setting": "M4 mAChR Q184A; +100uM Xano, Time 60 min", "result": 84.3012}, {"measurement": "[3H]-NMS binding remaining vs Total Binding, MEAN", "setting": "M4 mAChR Q184A; +100uM Xano, Time 90 min", "result": 69.8323}, {"measurement": "[3H]-NMS binding remaining vs Total Binding, MEAN", "setting": "M4 mAChR Q184A; +100uM Xano, Time 120 min", "result": 76.4651}, {"measurement": "[3H]-NMS binding remaining vs Total Binding, MEAN", "setting": "M4 mAChR Q184A; +100uM Xano, Time 180 min", "result": 50.1077}, {"measurement": "[3H]-NMS binding remaining vs Total Binding, MEAN", "setting": "M4 mAChR Q184A; +100uM Xano, Time 300 min", "result": 18.2224}, {"measurement": "[3H]-NMS binding remaining (0 min = 100), MEAN", "setting": "M4 mAChR F186A; 10uM Atr + 30 μM Xano, 30 min", "result": 78.1603}, {"measurement": "[3H]-NMS binding remaining (0 min = 100), MEAN", "setting": "M4 mAChR F186A; 10uM Atr + 30 μM Xano, 90 min", "result": 48.8248}, {"measurement": "[3H]-NMS binding remaining (0 min = 100), MEAN", "setting": "M4 mAChR F186A; 10uM Atr + 30 μM Xano, 180 min", "result": 47.3729}, {"measurement": "[3H]-NMS binding remaining (0 min = 100), MEAN", "setting": "M4 mAChR F186A; 10uM Atr + 100uM Xano, 30 min", "result": 72.0364}, {"measurement": "[3H]-NMS binding remaining (0 min = 100), MEAN", "setting": "M4 mAChR F186A; 10uM Atr + 100uM Xano, 90 min", "result": 60.4086}, {"measurement": "[3H]-NMS binding remaining (0 min = 100), MEAN", "setting": "M4 mAChR F186A; 10uM Atr + 100uM Xano, 180 min", "result": 46.0676}, {"measurement": "[3H]-NMS binding remaining (0 min = 100), MEAN", "setting": "M4 mAChR F186A; 10uM Atr + 100uM Xano, 300 min", "result": 23.3758}, {"measurement": "effect on [3H]-NMS dissociation (in words)", "setting": "M4 mAChR F186A", "result": "no longer retarded"}, {"measurement": "[3H]-NMS binding remaining vs Total Binding, MEAN", "setting": "M4 mAChR L190F; +100uM Xano, Time 90 min", "result": 72.792}, {"measurement": "[3H]-NMS binding remaining vs Total Binding, MEAN", "setting": "M4 mAChR L190F; +100uM Xano, Time 180 min", "result": 51.0423}, {"measurement": "[3H]-NMS binding remaining vs Total Binding, MEAN", "setting": "M4 mAChR L190F; +100uM Xano, Time 300 min", "result": 24.2929}]}]}
